Test results: US10683297B2 (Sunshine Lake Pharma Co., Ltd., priority 2017, dated 2020)

Columns and labels:
[1] = Compound stability in human liver microsomes; assay type: in vitro ADME; conditions: for half-life at 5 μM: human liver microsomes 0.5 mg protein/mL, compound 5 μM, NADPH 1.0 mM, pH 7.4, 37° C., read-out: Human T1/2; for CLint scaled at 5 μM: liver microsomes, pH 7.4, in vivo CLint extrapolated from human liver microsome incubation
How it was run: (§1)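 Compounds (5 μM) incubated at 37 °C with human or rat liver microsomes (0.5 mg protein/mL) and 1.0 mM NADPH in 100 mM phosphate buffer pH 7.4, 0.05% DMSO, in duplicate. Sampled 0–60 min, quantified by LC/MS/MS as % of time zero; CLint extrapolated.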

[2] = Compound stability in rat liver microsomes; assay type: in vitro ADME; conditions: for CLint scaled at 5 μM: liver microsomes, pH 7.4, in vivo CLint extrapolated from rat liver microsome incubation; for half-life at 5 μM: rat liver microsomes 0.5 mg protein/mL, compound 5 μM, NADPH 1.0 mM, pH 7.4, 37° C., read-out: Rat T1/2
How it was run: as §1

JAK1 (h) = target: T1, JAK1 (h) (Homo sapiens, UniProt P23458); assay: JAK1 (h) kinase assay; assay type: biochemical; conditions: [γ-33P-ATP] 10 μM or KM values; 40 minutes at room temperature
T1 construct: purchased Millipore UK Ltd (assays performed there as a service)
T1 sequence (P23458 whole entry): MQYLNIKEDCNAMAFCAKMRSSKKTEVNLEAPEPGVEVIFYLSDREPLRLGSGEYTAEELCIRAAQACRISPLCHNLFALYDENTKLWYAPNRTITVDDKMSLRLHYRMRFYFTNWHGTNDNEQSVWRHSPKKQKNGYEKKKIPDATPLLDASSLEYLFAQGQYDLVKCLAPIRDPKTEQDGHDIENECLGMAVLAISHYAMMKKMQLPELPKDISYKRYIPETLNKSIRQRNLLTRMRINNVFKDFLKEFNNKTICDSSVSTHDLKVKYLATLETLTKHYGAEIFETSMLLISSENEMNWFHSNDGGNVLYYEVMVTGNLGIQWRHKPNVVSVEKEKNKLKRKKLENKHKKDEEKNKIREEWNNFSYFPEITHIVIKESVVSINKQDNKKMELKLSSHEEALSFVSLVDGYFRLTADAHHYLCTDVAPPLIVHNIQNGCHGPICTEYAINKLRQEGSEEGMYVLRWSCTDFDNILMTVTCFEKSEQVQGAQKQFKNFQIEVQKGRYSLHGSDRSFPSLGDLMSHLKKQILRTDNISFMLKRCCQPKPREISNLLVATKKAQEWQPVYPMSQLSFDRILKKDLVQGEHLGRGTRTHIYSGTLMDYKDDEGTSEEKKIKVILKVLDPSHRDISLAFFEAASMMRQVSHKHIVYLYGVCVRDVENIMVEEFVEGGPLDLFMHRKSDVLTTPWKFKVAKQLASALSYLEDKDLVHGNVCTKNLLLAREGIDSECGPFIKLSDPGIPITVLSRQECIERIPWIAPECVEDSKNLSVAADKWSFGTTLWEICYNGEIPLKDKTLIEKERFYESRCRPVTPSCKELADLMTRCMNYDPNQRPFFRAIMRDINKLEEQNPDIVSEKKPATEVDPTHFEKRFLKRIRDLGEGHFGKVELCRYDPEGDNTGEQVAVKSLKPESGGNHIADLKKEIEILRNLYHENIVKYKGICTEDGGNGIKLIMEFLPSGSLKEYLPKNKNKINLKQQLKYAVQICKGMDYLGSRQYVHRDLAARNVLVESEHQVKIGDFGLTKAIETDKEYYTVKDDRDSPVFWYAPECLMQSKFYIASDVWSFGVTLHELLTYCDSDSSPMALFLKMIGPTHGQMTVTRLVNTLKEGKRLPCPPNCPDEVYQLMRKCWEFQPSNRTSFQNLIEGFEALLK
How it was run: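 Radiometric filter-binding assay: human JAK1 incubated 40 min at room temperature in 20 mM Tris/HCl pH 7.5, 0.2 mM EDTA, 500 μM peptide substrate, 10 mM Mg acetate, with [γ-33P]ATP at 10 μM or KM. Reaction stopped with phosphoric acid; P30 filtermat scintillation counting.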

Row | half-life at 5 μM [1] [min] | CLint scaled at 5 μM [1] [mL/min/kg] | CLint scaled at 5 μM [2] [mL/min/kg] | half-life at 5 μM [2] [min] | IC50 (JAK1 (h)) [nM] | SMILES
1 | 1370 | 1.3 | 7.3 | 340 | 0.9 | CC(C)(O)c1nc2cc(Nc3ncc(Cl)c(NC4CCN(c5ccc(C#N)nn5)CC4)n3)ccn2n1 [Example 55, 6-(4-((5-chloro-2-((2-(2-hydroxypropan-2-yl)-[1,2,4]triazolo[1,5-a]pyridin-7-yl)amino)pyrimidin-4-yl)amino)piperidin-1-yl)pyridazine-3-carbonitrile]
2 | 47.7 | 36.5 | 50.9 | 48.8 | 0.5 | CC(O)Cc1nc2cc(Nc3ncc(Cl)c(NC4CCN(c5ccc(C#N)nn5)CC4)n3)ccn2n1 (stereo not drawn) [Example 56, 6-(4-((5-chloro-2-((2-(2-hydroxypropyl)-[1,2,4]triazolo[1,5-a]pyridin-7-yl)amino)pyrimidin-4-yl)amino)piperidin-1-yl)pyridazine-3-carbonitrile]
3 | 15.6 | 112 | 732 | 3.4 | 0.4 | N#Cc1ccc(N2CCC(Nc3nc(Nc4ccc5c(c4)nnn5CC4CC4)ncc3Cl)CC2)nc1 [Example 60, 6-(4-((5-chloro-2-((1-(cyclopropylmethyl)-1H-benzo[d][1,2,3]triazol-5-yl)amino)pyrimidin-4-yl)amino)piperidin-1-yl)nicotinonitrile]
4 | 128 | 13.6 | 86.2 | 28.8 | < 0.3 | CC(O)Cn1cnc2cc(Nc3ncc(Cl)c(NC4CCN(c5ccc(C#N)cn5)CC4)n3)ccc21 (stereo not drawn) [Example 61, 6-(4-((5-chloro-2-((1-(2-hydroxypropyl)-1H-benzo[d]imidazol-5-yl)amino)pyrimidin-4-yl)amino)piperidin-1-yl)nicotinonitrile]
5 | 127 | 13.7 | 80.6 | 30.8 | 0.6 | CC(C)(O)Cc1nc2ccc(Nc3ncc(Cl)c(NC4CCN(c5ccc(C#N)cn5)CC4)n3)cn2n1 [Example 67, 6-(4-((5-chloro-2-((2-(2-hydroxy-2-methylpropyl)-[1,2,4]triazolo[1,5-a]pyridin-6-yl)amino)pyrimidin-4-yl)amino)piperidin-1-yl)nicotinonitrile]
6 | 10.6 | 164 | 130 | 19 | 0.3 | CC(C)(O)c1cnc2cc(Nc3ncc(Cl)c(NC4CCN(c5ccc(C#N)cn5)CC4)n3)ccn12 [Example 68, 6-(4-((5-chloro-2-((3-(2-hydroxypropan-2-yl)imidazo[1,2-a]pyridin-7-yl)amino)pyrimidin-4-yl)amino)piperidin-1-yl)nicotinonitrile]
7 | 496 | 3.5 | 14.6 | 170 | 0.5 | CC(C)(O)Cn1nnc2cc(Nc3ncc(Cl)c(NC4CCN(c5ccc(C#N)cn5)CC4)n3)ccc21 [Example 69, 6-(4-((5-chloro-2-((1-(2-hydroxy-2-methylpropyl)-1H-benzo[d][1,2,3]triazol-5-yl)amino)pyrimidin-4-yl)amino)piperidin-1-yl)nicotinonitrile]
8 | 10.3 | 168 | 528 | 4.71 | 0.5 | CC(C)(O)c1cn2ccc(Nc3ncc(Cl)c(NC4CCN(c5ccc(C#N)cn5)CC4)n3)cc2n1 [Example 70, 6-(4-((5-chloro-2-((2-(2-hydroxypropan-2-yl)imidazo[1,2-a]pyridin-7-yl)amino)pyrimidin-4-yl)amino)piperidin-1-yl)nicotinonitrile]
9 | 42 | 41.3 | 214 | 11.6 | 1 | CC(C)(O)Cc1cn2cc(Nc3ncc(Cl)c(NC4CCN(c5ccc(C#N)cn5)CC4)n3)ccc2n1 [Example 73, 6-(4-((5-chloro-2-((2-(2-hydroxy-2-methylpropyl)imidazo[1,2-a]pyridin-6-yl)amino)pyrimidin-4-yl)amino)piperidin-1-yl)nicotinonitrile]
10 | > 60 |  |  | > 60 | 0.7 | CC(C)(O)Cc1nnc2cc(Nc3ncc(Cl)c(NC4CCN(c5ccc(C#N)cn5)CC4)n3)ccn12 [Example 74, 6-(4-((5-chloro-2-((3-(2-hydroxy-2-methylpropyl)-[1,2,4]triazolo[4,3-a]pyridin-7-yl)amino)pyrimidin-4-yl)amino)piperidin-1-yl)nicotinonitrile]
11 | > 60 |  |  | > 60 | 1 | CC(C)(O)Cc1nnc2cc(Nc3ncc(Cl)c(NC4CCN(c5ccc(C#N)nn5)CC4)n3)ccn12 [Example 75, 6-(4-((5-chloro-2-((3-(2-hydroxy-2-methylpropyl)-[1,2,4]triazolo[4,3-a]pyridin-7-yl)amino)pyrimidin-4-yl)amino)piperidin-1-yl)pyridazine-3-carbonitrile]
12 | 257 | 6.8 | 38.2 | 65 | 0.7 | CC(C)(O)Cc1nc2cc(Nc3ncc(Cl)c(NC4CCN(c5ccc(C#N)nn5)CC4)n3)ccn2n1 [Example 77, 6-(4-((5-chloro-2-((2-(2-hydroxy-2-methylpropyl)-[1,2,4]triazolo[1,5-a]pyridin-7-yl)amino)pyrimidin-4-yl)amino)piperidin-1-yl)pyridazine-3-carbonitrile]
13 | 35.3 | 49.3 | 157 | 15.8 | 1 | CC(C)(O)Cc1nc2cc(Nc3ncc(Cl)c(NC4CCN(c5ccc(C#N)cn5)CC4)n3)ccn2n1 [Example 78, 6-(4-((5-chloro-2-((2-(2-hydroxy-2-methylpropyl)-[1,2,4]triazolo[1,5-a]pyridin-7-yl)amino)pyrimidin-4-yl)amino)piperidin-1-yl)nicotinonitrile]
14 | 196 | 8.9 | 5.1 | 486 | 1 | CC(C)(O)Cc1nc2ccc(Nc3ncc(Cl)c(NC4CCN(c5ccc(C#N)nn5)CC4)n3)cn2n1 [Example 79, 6-(4-((5-chloro-2-((2-(2-hydroxy-2-methylpropyl)-[1,2,4]triazolo[1,5-a]pyridin-6-yl)amino)pyrimidin-4-yl)amino)piperidin-1-yl)pyridazine-3-carbonitrile]
